Test results published in article PMC6358866 (International Journal of Molecular Sciences, 2019).

What was measured:
[1] = system: Staphylococus aureus ATCC 6538 biofilm; experiment: Activity against biofilms formed on polystyrene 96-well plates, 24 h exposure, resazurin; type: cell-based, Staphylococcus aureus
Experimental: Bacterial strains were obtained from the Polish Collection of Microorganisms (Polish Academy of Science, Wroclaw, Poland). […] The bacteria were cultured in a Mueller Hinton Broth II (MHB, Biocorp, Warsaw, Poland) overnight, under aerobic conditions at 37 °C. After incubation, the liquid cultures were centrifuged (2500 rpm for 10 min) and washed with phosphoric buffer (PBS, AppliChem, Darmstadt, Germany) three times and resuspended in fresh MHB II for inoculums appropriate for the performed assays.
Bacterial suspensions were added to 96-well plates (Kartell, Noviglio, Italy) at initial inoculums of ca. 5 × 10^8 CFU/mL and incubated under aerobic conditions with shaking (120 rpm) at 37 °C for 24 h. […] After exposure, the wells were washed three times with PBS and a solution of resazurin (Sigma Aldrich, St. Louis, MO, USA) in MHB II (0.01%) was added. This cell viability reagent is metabolized by bacterial dehydrogenases upon contact with living cells. As a result, the blue dye is reduced to a pink resorufin. After 1.5 h of incubation, the absorbance was measured at 570 and 600 nm using a microplate reader (Thermo Fisher Scientific, Waltham, MA, USA). […] The metabolic activity of bacteria in the samples was measured according to the following formula:
Metabolic activity (%) = (ΔAbs of sample − ΔAbs of negative control)/(ΔAbs of positive control − ΔAbs of negative control);
ΔAbs = absorbance at 570 nm − absorbance at 600 nm;
The presented results are the means of nine results obtained on three different days.

[2] = system: Staphylococus aureus ATCC 6538 biofilm on CLs; experiment: Lipopeptide, lens liquids and combinations against biofilms on CLs after withdrawal of the antimicrobial solution; type: cell-based, Staphylococcus aureus; details: SA biofilm on CLs, lipopeptide in PBS, after withdrawal and 24 h in MHB II
Experimental: (§1) Bacterial strains were obtained from the Polish Collection of Microorganisms (Polish Academy of Science, Wroclaw, Poland). Three Gram-positive and two Gram-negative strains linked with CL-related infections were chosen for the study (Staphylococus aureus ATCC 6538, Staphylococcus epidermidis ATCC 14990, Pseudomonas aeruginosa ATCC 9027, Escherichia coli ATCC 25922, and Enterococcus faecalis ATCC 29212). The bacteria were cultured in a Mueller Hinton Broth II (MHB, Biocorp, Warsaw, Poland) overnight, under aerobic conditions at 37 °C. After incubation, the liquid cultures were centrifuged (2500 rpm for 10 min) and washed with phosphoric buffer (PBS, AppliChem, Darmstadt, Germany) three times and resuspended in fresh MHB II for inoculums appropriate for the performed assays.
Bacterial biofilms were cultured on commercially available CLs (1-Day Acuvue Moist, containing Etafilcon A, obtained from Johnson and Johnson Vision Care, Jacksonsville, FL, USA). […] After incubation, resazurin was added (final concentration per sample = 0.01%) and absorbance was measured as in the assays 4.3 and 4.4. […]
The assay was also performed for the samples where biofilms on CLs were exposed to pure CL solutions. […] The results were read, calculated, and presented as in the previously-described sections.

[3] = system: Staphylococus aureus ATCC 6538 biofilm; experiment: Effect of the lipopeptide on lens liquids against biofilms on 96-well polystyrene plates; type: cell-based, Staphylococcus aureus; details: SA biofilm on polystyrene, lipopeptide alone in PBS, 24 h
Experimental: as §1, with “After incubation, the liquid cultures were centrifuged (2500 rpm for 10 min) and washed with phosphoric buffer (PBS, AppliChem, Darmstadt, Germany) three times and resuspended in fresh MHB II for inoculums appropriate for the performed assays.” left out
(§2) Bacterial suspensions were added to 96-well plates (Kartell, Noviglio, Italy) at initial inoculums of ca. 5 × 10^8 CFU/mL and incubated under aerobic conditions with shaking (120 rpm) at 37 °C for 24 h. […] After 1.5 h of incubation, the absorbance was measured at 570 and 600 nm using a microplate reader (Thermo Fisher Scientific, Waltham, MA, USA). […] The metabolic activity of bacteria in the samples was measured according to the following formula:
(§3) Positive controls (100%) were wells with pre-grown biofilms where the MHB II was replaced with pure PBS, while negative controls were wells with pure MHB II (also replaced with PBS). After 24 h of incubation (aerobic conditions, 120 rpm shaking, 37 °C), the solutions were replaced with resazurin in MHB II and the results were read and presented as described in Section 4.3.

[4] = system: Staphylococcus epidermidis ATCC 14990 biofilm; experiment: as above; type: cell-based; details: SE biofilm on polystyrene, lipopeptide alone in PBS, 24 h
Experimental: as §1, with “After incubation, the liquid cultures were centrifuged (2500 rpm for 10 min) and washed with phosphoric buffer (PBS, AppliChem, Darmstadt, Germany) three times and resuspended in fresh MHB II for inoculums appropriate for the performed assays.” left out
as §2, §3

Substance: (C10)2-KKKK-NH2 [Lipopeptide]
- reduction in the metabolic activity ([1]; SA biofilm on polystyrene, 24 h exposure, 32 mg/L and higher): over 90%
- MBEC 50 ([1]; lowest concentration reducing metabolic activity by at least 50 ± 5%, polystyrene plate, 24 h exposure in MHB II, resazurin): 8 mg/L
- MBEC 90 ([1]; lowest concentration reducing metabolic activity by at least 90 ± 5%, polystyrene plate, 24 h exposure in MHB II, resazurin, mean of nine results): 32 mg/L
- concentration permanently removing biofilm from CLs [2]: 16 mg/L
- concentration at which highly active against biofilm [3]: 32 mg/L
- concentration at which highly active against biofilm [4]: 16 mg/L
